Measured values as given in US6472348B1, “Pyridone derivatives and herbicides” (Kumiai Chemical Industry Co., Ltd., priority 1996, dated 2002).

Assays:
corn (Ze) = assay: Test Example 11: crop plant selectivity by upland field foliage treatment (corn), phytotoxicity; settings: dose 1.6 g ai/10a
Protocol: (§1) (Test on Crop Plant Selectivity by Upland Field Foliage Treatment)
(§2) In a plastic pot (surface area: 600 cm^2) filled with sand, corn (Ze), pale smartweed (Po), slender amaranth (Am), common lambsquarters (Ch) and China jute (Ab) were sown and cultured in a green house for 2 weeks. […] The plants were then cultured in a green house, and the evaluation of the herbicidal effects and phytotoxicity was conducted on the 14th day after the treatment in accordance with the standards as identified in Table 47.

wheat (Tr) = assay: Test Example 9: crop plant selectivity by upland field foliage treatment (wheat), phytotoxicity; settings: dose 1.6 g ai/10a, 14th day after treatment;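 also: grade of crop injury; 5 = at least 90%; 4 = 70 to 90%; 3 = 50 to 70%; 2 = 30 to 50%; 1 = 10 to 30%; 0 = under 10%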
In short: (§3)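 Seeds of wheat, pale smartweed, slender amaranth, common lambsquarters and China jute are sown in sand and grown 2 weeks under glass. Foliage is then treated, culture resumes in the greenhouse, and damage is graded on the 14th day.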

slender amaranth (Am) [1] = assay: Test Example 11: crop plant selectivity by upland field foliage treatment (corn), herbicidal effects; type: in vivo; set-up: scale not given here; settings: dose 1.6 g ai/10a
Protocol: as §1, §2

China jute (Ab) [2] = assay: as above; type: in vivo; set-up: scale not given here; settings: dose 1.6 g ai/10a
Protocol: as §1, §2

pale smartweed (Po) [3] = assay: as above; type: in vivo; set-up: scale not given here; settings: dose 1.6 g ai/10a
Protocol: as §1, §2

[4] = tested on: common lambsquarters (Ch); assay: as above; type: in vivo; set-up: scale not given here; settings: dose 1.6 g ai/10a
Protocol: as §1, §2

slender amaranth (Am) [5] = assay: Test Example 3: herbicidal effects by upland field foliage treatment; type: in vivo; set-up: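 grade of growth control; 5 = at least 90%; 4 = 70 to 90%; 3 = 50 to 70%; 2 = 30 to 50%; 1 = 10 to 30%; 0 = under 10%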
In short: (§4)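 Weeds sown in sand-filled pots and grown 2 weeks in a greenhouse before foliage treatment. Plants then kept in the greenhouse; herbicidal effect scored on day 14 after treatment against a graded standard scale.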

pale smartweed (Po) [6] = assay: as above; type: in vivo; set-up: scale not given here
In short: as §4

barnyardgrass (Ec) [7] = assay: as above; type: in vivo; set-up: scale not given here
In short: as §4

rice flatsedge (Ci) [8] = assay: as above; type: in vivo; set-up: scale not given here
In short: as §4

Diaitaria ciliaris (Di) = assay: as above; type: in vivo; set-up: scale not given here
In short: as §4

[9] = tested on: common lambsquarters (Ch); assay: as above; type: in vivo; set-up: scale not given here
In short: as §4

slender amaranth (Am) [10] = assay: Test Example 9: crop plant selectivity by upland field foliage treatment (wheat), herbicidal effects; type: in vivo; set-up: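 grade of growth control; 5 = at least 90%; 4 = 70 to 90%; 3 = 50 to 70%; 2 = 30 to 50%; 1 = 10 to 30%; 0 = under 10%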; settings: dose 1.6 g ai/10a, 14th day after treatment
In short: as §3

China jute (Ab) [11] = assay: as above; type: in vivo; set-up: scale not given here; settings: dose 1.6 g ai/10a, 14th day after treatment
In short: as §3

pale smartweed (Po) [12] = assay: as above; type: in vivo; set-up: scale not given here; settings: dose 1.6 g ai/10a, 14th day after treatment
In short: as §3

[13] = tested on: common lambsquarters (Ch); assay: as above; type: in vivo; set-up: scale not given here; settings: dose 1.6 g ai/10a, 14th day after treatment
In short: as §3

slender amaranth (Am) [14] = assay: Test Example 2: herbicidal effects by upland field soil treatment; type: in vivo; settings: 100 g of the active ingredient per 10 ares;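 also: grade of growth control; 5 = at least 90%; 4 = 70 to 90%; 3 = 50 to 70%; 2 = 30 to 50%; 1 = 10 to 30%; 0 = under 10%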
Excerpt: (§5) (Test on Herbicidal Effects by Upland Field Soil Treatment)

pale smartweed (Po) [15] = assay: as above; type: in vivo; settings: 100 g of the active ingredient per 10 ares
Excerpt: as §5

barnyardgrass (Ec) [16] = assay: as above; type: in vivo; settings: 100 g of the active ingredient per 10 ares
Excerpt: as §5

rice flatsedge (Ci) [17] = assay: as above; type: in vivo; settings: 100 g of the active ingredient per 10 ares
Excerpt: as §5

Digitaria ciliaris (Di) = assay: as above; type: in vivo; settings: 100 g of the active ingredient per 10 ares;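 also: grade of growth control; 5 = at least 90%; 4 = 70 to 90%; 3 = 50 to 70%; 2 = 30 to 50%; 1 = 10 to 30%; 0 = under 10%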
Excerpt: as §5

[18] = tested on: common lambsquarters (Ch); assay: as above; type: in vivo; settings: 100 g of the active ingredient per 10 ares
Excerpt: as §5

barnyardgrass (Ec) [19] = assay: Test Example 1: herbicidal effects by paddy field soil treatment; type: in vivo; settings: 100 g of the active ingredient per 10 ares, 21st day after the application, index 0-5 of Table 47;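 also: grade of growth control; 5 = at least 90%; 4 = 70 to 90%; 3 = 50 to 70%; 2 = 30 to 50%; 1 = 10 to 30%; 0 = under 10%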
In short: (§6)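 Herbicidal effect was scored against a graded standard 21 days after treatment. Seeds were sown in puddled, leveled paddy soil flooded to 3 cm depth, and the active ingredient was applied at 100 g per 10 ares before greenhouse culture.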

bulrush (Sc) = assay: as above; type: in vivo; settings: 100 g of the active ingredient per 10 ares, 21st day after the application, index 0-5 of Table 47
In short: as §6

monochoria (Mo) = assay: as above; type: in vivo; settings: 100 g of the active ingredient per 10 ares, 21st day after the application, index 0-5 of Table 47
In short: as §6

[20] = upland field foliage treatment, 14th day after treatment
[21] = upland field foliage treatment (corn test), 14th day after treatment
[22] = 100 g of the active ingredient per 10 ares, evaluated on the 14th day after treatment
[23] = 21st day after the application, index 0-5 of Table 47
[24] = evaluated on the 21st day after application
[25] = 100 g active ingredient per 10 ares, evaluated 14th day after treatment
[26] = corn, foliage treatment, evaluated on 14th day after treatment, index per Table 47
[27] = slender amaranth, foliage treatment, evaluated on 14th day after treatment, index per Table 47
[28] = China jute, foliage treatment, evaluated on 14th day after treatment, index per Table 47
[29] = pale smartweed, foliage treatment, evaluated on 14th day after treatment, index per Table 47
[30] = common lambsquarters, foliage treatment, evaluated on 14th day after treatment, index per Table 47

Compound | Phytotoxicity Ze (corn (Ze); [20]) | Phytotoxicity Tr (wheat (Tr)) | Herbicidal effects Am (slender amaranth (Am) [1]; [21]) | Herbicidal effects Ab (China jute (Ab) [2]; [21]) | Herbicidal effects Po (pale smartweed (Po) [3]; [21]) | Herbicidal effects Ch [4, 21] | Herbicidal effects Am (slender amaranth (Am) [5]; [22]) | Herbicidal effects Po (pale smartweed (Po) [6]; [22]) | Herbicidal effects Ec (barnyardgrass (Ec) [7]; [22]) | Herbicidal effects Ci (rice flatsedge (Ci) [8]; [22]) | Herbicidal effects Di (Diaitaria ciliaris (Di); [22]) | Herbicidal effects Ch [9, 22] | Herbicidal effects Am (slender amaranth (Am) [10]) | Herbicidal effects Ab (China jute (Ab) [11]) | Herbicidal effects Po (pale smartweed (Po) [12]) | Herbicidal effects Ch [13] | Herbicidal effects Am (slender amaranth (Am) [14]; [23]) | Herbicidal effects Ec (barnyardgrass (Ec) [19]) | Herbicidal effects Sc (bulrush (Sc)) | Herbicidal effects Mo (monochoria (Mo)) | also measured
CCOC(=O)C(CC)Sc1cc(-c2ccc(C(F)(F)F)n(C)c2=O)c(Cl)cc1Cl (racemic) [1-125] | 2 | 2 | 5 | 5 | 5 | 5 | 5 | 5 | 5 | 5 | 5 | 5 | 5 | 5 | 5 | 5 |  |  |  |  | 
C#CC(C)Oc1cc(-c2ccc(C(F)(F)F)n(C)c2=O)c(Cl)cc1Cl (stereo not drawn) [1-31] | 2 | 2 | 5 | 5 | 5 | 5 |  |  |  |  |  |  | 5 | 5 | 5 | 5 |  |  |  |  | 
COCOc1cc(-c2ccc(C(F)(F)F)n(C)c2=O)c(Cl)cc1Cl [1-38] | 2 | 2 | 5 | 5 | 5 | 5 | 5 | 5 | 5 | 5 | 5 | 5 | 5 | 5 | 5 | 5 | 5 | 5 | 5 | 5 | Herbicidal effects Po (pale smartweed (Po) [15]; [23]): 5; Herbicidal effects Ec (barnyardgrass (Ec) [16]; [23]): 5; Herbicidal effects Ci (rice flatsedge (Ci) [17]; [23]): 5; Herbicidal effects Di (Digitaria ciliaris (Di); [23]): 5; Herbicidal effects Ch [18, 23]: 5
C#CCNc1cc(-c2ccc(C(F)(F)F)n(C)c2=O)c(F)cc1Cl [1-62] | 2 | 2 | 5 | 5 | 5 | 5 | 5 | 5 | 5 | 5 | 5 | 5 | 5 | 5 | 5 | 5 | 5 | 5 | 5 | 5 | Herbicidal effects Po (pale smartweed (Po) [15]; [23]): 5; Herbicidal effects Ec (barnyardgrass (Ec) [16]; [23]): 5; Herbicidal effects Ci (rice flatsedge (Ci) [17]; [23]): 5; Herbicidal effects Di (Digitaria ciliaris (Di); [23]): 5; Herbicidal effects Ch [18, 23]: 5
C#CCOc1cc(-c2ccc(C(F)(F)F)n(C)c2=O)ccc1Cl [1-106] | 2 | 2 | 5 | 5 | 5 | 5 | 5 | 5 | 5 | 5 | 5 | 5 | 5 | 5 | 5 | 5 | 5 | 5 | 5 | 5 | Herbicidal effects Po (pale smartweed (Po) [15]; [23]): 5; Herbicidal effects Ec (barnyardgrass (Ec) [16]; [23]): 5; Herbicidal effects Ci (rice flatsedge (Ci) [17]; [23]): 5; Herbicidal effects Di (Digitaria ciliaris (Di); [23]): 5; Herbicidal effects Ch [18, 23]: 5
Cn1c(C(F)(F)F)ccc(-c2cc(C(=O)OCCBr)c(Cl)cc2F)c1=O [1-134] | 2 | 2 | 5 | 5 | 5 | 5 | 5 | 5 | 5 | 5 | 5 | 5 | 5 | 5 | 5 | 5 | 5 | 5 | 5 | 5 | Herbicidal effects Po (pale smartweed (Po) [15]; [23]): 5; Herbicidal effects Ec (barnyardgrass (Ec) [16]; [23]): 5; Herbicidal effects Ci (rice flatsedge (Ci) [17]; [23]): 5; Herbicidal effects Di (Digitaria ciliaris (Di); [23]): 5; Herbicidal effects Ch [18, 23]: 5
Cn1c(C(F)(F)F)ccc(-c2cc(OC3CCOC3)c(Cl)cc2F)c1=O (stereo not drawn) [1-162] | 2 | 2 | 5 | 5 | 5 | 5 | 5 | 5 | 5 | 5 | 5 | 5 | 5 | 5 | 5 | 5 | 5 | 5 | 5 | 5 | Herbicidal effects Po (pale smartweed (Po) [15]; [23]): 5; Herbicidal effects Ec (barnyardgrass (Ec) [16]; [23]): 5; Herbicidal effects Ci (rice flatsedge (Ci) [17]; [23]): 5; Herbicidal effects Di (Digitaria ciliaris (Di); [23]): 5; Herbicidal effects Ch [18, 23]: 5
CC(C#N)Oc1cc(-c2ccc(C(F)(F)F)n(C)c2=O)c(F)cc1Cl (stereo not drawn) [1-176] | 1 | 1 | 5 | 5 | 5 | 5 | 5 | 5 | 5 | 5 | 5 | 5 | 5 | 5 | 5 | 5 |  | 5 | 5 | 5 | Herbicidal effects Am (slender amaranth (Am) [14]; [24]): 5; Herbicidal effects Po (pale smartweed (Po) [15]; [24]): 5; Herbicidal effects Ec (barnyardgrass (Ec) [16]; [24]): 5; Herbicidal effects Ci (rice flatsedge (Ci) [17]; [24]): 5; Herbicidal effects Di (Digitaria ciliaris (Di); [24]): 5; Herbicidal effects Ch [18, 24]: 5
C=CCN1C(=O)COc2ccc(-c3ccc(C(F)(F)F)n(C)c3=O)cc21 [2-31] | 2 | 2 | 5 | 5 | 5 | 5 |  |  |  |  |  |  | 5 | 5 | 5 | 5 |  | 5 | 5 | 5 | Herbicidal effects Am (slender amaranth (Am) [14]; [24]): 5; Herbicidal effects Po (pale smartweed (Po) [15]; [24]): 5; Herbicidal effects Ec (barnyardgrass (Ec) [16]; [24]): 5; Herbicidal effects Ci (rice flatsedge (Ci) [17]; [24]): 5; Herbicidal effects Di (Digitaria ciliaris (Di); [24]): 5; Herbicidal effects Ch [18, 24]: 5; Herbicidal effects Am (slender amaranth (Am) [5]; [25]): 5; Herbicidal effects Po (pale smartweed (Po) [6]; [25]): 5; Herbicidal effects Ec (barnyardgrass (Ec) [7]; [25]): 5; Herbicidal effects Ci (rice flatsedge (Ci) [8]; [25]): 5; Herbicidal effects Di (Diaitaria ciliaris (Di); [25]): 5; Herbicidal effects Ch [9, 25]: 5
CCOC(=O)CN1C(=O)COc2cc(F)c(-c3ccc(C(F)(F)F)n(C)c3=O)cc21 [Compound 2-18] | 2 | 2 | 5 | 5 | 5 | 5 |  |  |  |  |  |  | 5 | 5 | 5 | 5 |  | 5 | 5 | 5 | 
CC(C)OCc1cc2c(-c3ccc(C(F)(F)F)n(C)c3=O)c(F)cc(Cl)c2o1 [Compound 4-33] |  | 2 |  |  |  |  |  |  |  |  |  |  | 5 | 5 | 5 | 5 |  | 5 | 5 | 5 | Phytotoxicity Ze (corn (Ze); [26]): 2; Herbicidal effects Am (slender amaranth (Am) [1]; [27]): 5; Herbicidal effects Ab (China jute (Ab) [2]; [28]): 5; Herbicidal effects Po (pale smartweed (Po) [3]; [29]): 5; Herbicidal effects Ch [4, 30]: 5; Herbicidal effects Am (slender amaranth (Am) [5]; [25]): 5; Herbicidal effects Po (pale smartweed (Po) [6]; [25]): 5; Herbicidal effects Ec (barnyardgrass (Ec) [7]; [25]): 5; Herbicidal effects Ci (rice flatsedge (Ci) [8]; [25]): 5; Herbicidal effects Di (Diaitaria ciliaris (Di); [25]): 5; Herbicidal effects Ch [9, 25]: 5
CCC(Br)c1cc2c(-c3ccc(C(F)(F)F)n(C)c3=O)c(F)cc(Cl)c2o1 (stereo not drawn) [Compound 4-38] |  | 2 |  |  |  |  |  |  |  |  |  |  | 5 | 5 | 5 | 5 |  |  |  |  | Phytotoxicity Ze (corn (Ze); [26]): 2; Herbicidal effects Am (slender amaranth (Am) [1]; [27]): 5; Herbicidal effects Ab (China jute (Ab) [2]; [28]): 5; Herbicidal effects Po (pale smartweed (Po) [3]; [29]): 5; Herbicidal effects Ch [4, 30]: 5
